pEC50, pIC50: −log10 of the molar value. Where two headings read alike, the source gives them in different places. Peptide text beside a SMILES is read from it.
Biological target: T1, ChemR23 (CMKLR1) (Homo sapiens, UniProt Q99788)
T1 construct: host or cells: CHO
T1 sequence (Q99788 1-373): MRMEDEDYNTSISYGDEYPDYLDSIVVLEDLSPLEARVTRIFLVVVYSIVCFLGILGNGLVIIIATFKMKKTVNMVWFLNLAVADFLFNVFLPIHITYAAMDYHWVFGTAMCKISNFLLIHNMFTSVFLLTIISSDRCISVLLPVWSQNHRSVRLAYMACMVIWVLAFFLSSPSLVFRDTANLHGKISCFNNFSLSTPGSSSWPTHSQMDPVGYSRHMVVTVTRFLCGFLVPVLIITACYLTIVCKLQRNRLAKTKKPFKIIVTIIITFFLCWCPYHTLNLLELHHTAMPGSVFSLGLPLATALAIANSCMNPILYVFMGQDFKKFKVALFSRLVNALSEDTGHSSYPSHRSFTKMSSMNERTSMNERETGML
Assay: PathHunter β-Arrestin assay, ChemR23 (CMKLR1), agonist and antagonist mode
Format: cell-based
Details: for Rank Order / % Max Activity / % Max Inhibition: ChemR23; for Rank Order: agonist; for % Max Activity: agonist mode; for % Max Inhibition: antagonist mode, chemerin at EC80; for agonist activity, in words / antagonist activity, in words: human ChemR23; for agonist activity, in words: FIG. 2A/2B; for antagonist activity, in words: chemerin at 80% maximum signal
Method: The DiscoveRx PathHunter™ eXpress GPCR activity assay was employed to test agonist and antagonist activities of the chemerin peptides against the GPCRs ChemR23 and GPR1. Two assay formats were tested, the PathHunter β-Arrestin assay and the Hit Hunter cAMP Hunter assay.
The PathHunter β-Arrestin assay monitors the activation of a GPCR in a homogenous, non-imaging assay format using a technology developed by DiscoveRx called complementation, which utilizes an enzyme fragment complementation (EFC) assay with β-galactosidase (β-Gal) as the functional reporter. The enzyme is split into two complementary portions expressed as fusion proteins in the cell. The Enzyme Acceptor (EA) is fused to β-Arrestin and the ProLink donor peptide is fused to the GPCR of interest. Upon GPCR stimulation, β-Arrestin is recruited to the receptor for desensitization, bringing the two fragments of β-Gal together and allowing complementation to occur.
The assay involves CHO cell lines that express 1) a GPCR of interest (e.g. ChemR23 or GPR1) that has a fragment of the βgal enzyme fused to the C-terminus of the receptor and 2) a β-arrestin fused to the main β-gal enzyme. When the agonist binds to the receptor, β-arrestin is recruited to the receptor and the β-gal enzyme is complemented by the fragment from the GPCR thus forming a functional β-gal enzyme. A substrate is then added and luminescence is generated to detect β-arrestin recruitment.
The protocol used was a standard protocol employed by DiscoveRx PathHunter™ profiling service. […] Once it was established that the cells were healthy and growing normally, cells were passaged from flasks using cell dissociation reagent and seeded into white walled clear bottom 384-well microplates for compound profiling. For profiling, cells were seeded at a density of 5000 cells per well in a total volume of 20 μL and were allowed to adhere and recover overnight prior to compound addition.
For the agonist assay, intermediate dilution of compound stocks were generated such that 5 μL of 5× compound could be added to each well with a final DMSO concentration of 1% of total volume. For profiling compound in agonist mode, the cells were incubated in the presence of compound at 37° C. for 90 minutes.
For the antagonist assay, agonist dose curves were performed the morning of profiling to determine the EC80 value for the following antagonist testing with compounds. 5 μL of 5× agonist (i.e. chemerin) was added to each well with an equal concentration of vehicle present. EC80 agonist concentration was determined directly from agonist dose curve. For antagonist determination, cells were preincubated with antagonist followed by agonist challenge at the EC80 concentration: 4. 5 μL of 5× compound added to cells and incubated at 37° C. for 30 minutes. 5. 5 μL of 6× EC80 agonist added to cells and incubated at 37° C. for 90 minutes.
Microplates were read following signal generation with a PerkinElmer Envision™ instrument for chemiluminescent signal detection
Dose curves in the presence and absence of compound were plotted using GraphPad Prism or Activity Base. For agonist mode assays, percentage activity was calculated using the following formula: % Activity=100%×(Mean RLU of test sample−mean RLU of vehicle control)/(mean MAX RLU control ligand−mean RLU of vehicle control)). For antagonist mode assays, percentage inhibition was calculated using the following formula: % Inhibition=100%×(1−(Mean RLU of test sample−mean RLU of vehicle control)/(mean RLU of EC80 control−mean RLU of vehicle control)).

| SMILES | pEC50 | pIC50 | Rank Order | % Max Activity [%] | % Max Inhibition [%] | agonist activity, in words | antagonist activity, in words | EC50 (read-out: RC50 (uM), EC50, Arrestin, Agonist, AssayTarget ChemR23) [µM] |
| --- | --- | --- | --- | --- | --- | --- | --- | --- |
| C[C@H](N)C(=O)NCC(=O)N[C@@H](CCC(=O)O)C(=O)N[C@@H](CC(=O)O)C(=O)N1CCC[C@H]1C(=O)N[C@@H](Cc1c[nH]cn1)C(=O)N[C@@H](CO)C(=O)N[C@@H](Cc1ccccc1)C(=O)N[C@@H](Cc1ccc(O)cc1)C(=O)N[C@@H](Cc1ccccc1)C(=O)N1CCC[C@H]1C(=O)NCC(=O)N[C@@H](CCC(N)=O)C(=O)N[C@@H](Cc1ccccc1)C(=O)N[C@@H](C)C(=O)O [C15 (human)] (H-AGEDPHSFYFPGQFA-OH; N-terminus and C-terminus assumed) | < 5.00 | < 5.00 | 3 | 0.8 | 0 | neither human nor mouse chemerin C15 peptides acted as agonists | neither human nor mouse chemerin C15 peptides acted as antagonists | – |
| C[C@H](N)C(=O)NCC(=O)N[C@@H](CCC(=O)O)C(=O)N[C@@H](CC(=O)O)C(=O)N1CCC[C@H]1C(=O)N[C@@H](Cc1c[nH]cn1)C(=O)N[C@@H](CO)C(=O)N[C@@H](Cc1ccccc1)C(=O)N[C@@H](Cc1ccc(O)cc1)C(=O)N[C@@H](Cc1ccccc1)C(=O)N1CCC[C@H]1C(=O)NCC(=O)N[C@@H](CCC(N)=O)C(=O)N[C@@H](Cc1ccccc1)C(=O)N[C@@H](C)C(=O)N[C@@H](Cc1ccccc1)C(=O)N[C@@H](CO)C(=O)O [C17 (human)] (H-AGEDPHSFYFPGQFAFS-OH; N-terminus and C-terminus assumed) | – | < 5.00 | 2 | 67.5 | 0 | exhibited agonist activity | – | – |
| CC(C)C[C@H](NC(=O)[C@H](Cc1ccccc1)NC(=O)[C@H](Cc1ccc(O)cc1)NC(=O)CNC(=O)[C@H](Cc1c[nH]cn1)NC(=O)[C@@H]1CCCN1C(=O)[C@H](CC(=O)O)NC(=O)[C@H](CCC(=O)O)NC(=O)CNC(=O)[C@H](C)N)C(=O)N1CCC[C@H]1C(=O)NCC(=O)N[C@@H](CCC(N)=O)C(=O)N[C@@H](Cc1ccccc1)C(=O)N[C@@H](C)C(=O)O [mC15] (H-AGEDPHGYFLPGQFA-OH; N-terminus and C-terminus assumed) | < 5.00 | < 5.00 | 3 | 0.4 | 0 | neither human nor mouse chemerin C15 peptides acted as agonists | neither human nor mouse chemerin C15 peptides acted as antagonists | > 10 |

From patent publication US20140349943A1, “TOPICAL FORMULATIONS OF CHEMERIN C15 PEPTIDES FOR THE TREATMENT OF DERMATOLOGICAL CONDITIONS” (priority 2011, published 2014)
